Results as given in publication PMC8645336, “Benchmarking a highly selective USP30 inhibitor for enhancement of mitophagy and pexophagy” (Life Science Alliance, 2021).

Target: T1, VCPIP (Homo sapiens, UniProt Q96JH7)
T1 construct: gene VCPIP1
T1 sequence (Q96JH7 1-1222): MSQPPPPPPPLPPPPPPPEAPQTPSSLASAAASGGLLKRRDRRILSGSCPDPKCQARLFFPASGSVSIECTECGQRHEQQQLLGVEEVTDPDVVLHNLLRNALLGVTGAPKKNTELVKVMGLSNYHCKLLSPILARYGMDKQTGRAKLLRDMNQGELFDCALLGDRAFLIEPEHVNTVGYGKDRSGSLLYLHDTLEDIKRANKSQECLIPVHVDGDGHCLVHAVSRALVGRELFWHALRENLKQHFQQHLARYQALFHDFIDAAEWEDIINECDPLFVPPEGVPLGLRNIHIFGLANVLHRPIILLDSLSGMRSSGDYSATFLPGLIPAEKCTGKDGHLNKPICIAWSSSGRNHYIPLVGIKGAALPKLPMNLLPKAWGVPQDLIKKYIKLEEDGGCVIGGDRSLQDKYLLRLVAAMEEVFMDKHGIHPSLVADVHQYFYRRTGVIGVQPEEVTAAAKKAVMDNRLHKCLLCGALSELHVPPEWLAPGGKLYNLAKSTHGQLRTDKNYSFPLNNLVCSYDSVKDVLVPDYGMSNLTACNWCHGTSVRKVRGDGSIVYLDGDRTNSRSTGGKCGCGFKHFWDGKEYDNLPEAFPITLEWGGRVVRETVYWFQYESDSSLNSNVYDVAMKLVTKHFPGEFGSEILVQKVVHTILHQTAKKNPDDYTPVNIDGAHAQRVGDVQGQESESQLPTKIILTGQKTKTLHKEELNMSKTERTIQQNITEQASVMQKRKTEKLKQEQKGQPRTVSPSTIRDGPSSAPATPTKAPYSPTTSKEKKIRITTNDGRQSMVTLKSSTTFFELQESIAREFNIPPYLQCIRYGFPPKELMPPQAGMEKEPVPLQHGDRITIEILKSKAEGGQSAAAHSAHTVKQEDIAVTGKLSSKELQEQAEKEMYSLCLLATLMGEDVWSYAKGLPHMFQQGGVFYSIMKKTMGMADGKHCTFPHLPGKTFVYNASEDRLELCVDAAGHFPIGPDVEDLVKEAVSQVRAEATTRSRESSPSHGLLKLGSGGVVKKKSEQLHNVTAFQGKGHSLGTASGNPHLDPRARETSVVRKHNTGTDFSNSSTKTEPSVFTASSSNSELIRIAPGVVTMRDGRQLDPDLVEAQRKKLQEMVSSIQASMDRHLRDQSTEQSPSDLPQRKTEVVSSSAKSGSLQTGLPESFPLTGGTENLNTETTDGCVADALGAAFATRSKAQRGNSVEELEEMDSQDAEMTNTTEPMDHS
Test: biochemical
Parameters: Ubiquigent DUB profiler selectivity panel, remaining enzyme activity as % of control
Conditions: read-out: % of control remaining
Description: Previous work has reported IC50 values for a series of benzosulphonamide inhibitors, of which all those <1 μM were screened for selectivity, in comparison to three other USP family members ([20], [21]). We have selected one of these compounds (CMPD-39, Fig 1A) for a more rigorous test of selectivity provided by the Ubiquigent DUB profiler screening platform comprising >40 DUBs. […] To test engagement of the inhibitor with USP30 applied to intact cells, we assayed competition with Ub-PA (Ub-propargylamide). Ub-PA covalently binds to the USP30 active site leading to a characteristic upshift on a SDS–PAGE gel ([22]). If a drug blocks access to the catalytic site, then the probe modification is blocked and the apparent molecular weight of USP30 shifts down accordingly. […] A robust proxy read-out for target engagement is the enhancement of TOMM20 ubiquitylation after mitochondrial depolarization ([6], [16]). This second assay indicates a maximal effect with 200 nM CMPD-39 applied to RPE1-YFP-PRKN cells (Fig 1D).  Figure 1. CMPD-39 is a selective USP30 inhibitor. (A) Chemical structure of CMPD-39. (B) DUB specificity screen (DUB profiler, Ubiquigent) with 1-100 μM CMPD-39. […] Samples were incubated with CMPD-39 for 2 h at the indicated concentrations, then incubated with HA-Ub-PA probe for 10 min at 37°C and immunoblotted as shown. Red arrow indicates unbound USP30; blue arrow represents probe bound USP30. (D) Inhibition of USP30 enhances the ubiquitylation of TOMM20 in YFP-PRKN over-expressing hTERT-RPE1 cells in a concentration dependent manner in response to mitophagy induction. Cells were treated for 1 h with DMSO or antimycin A and oligomycin A (AO; 1 μM each) in the absence or presence of CMPD-39 at the indicated concentrations, lysed, and analyzed by Western blotting. Black arrow indicates unmodified TOMM20, ubiquitylated species are indicated by red (mono-ubiquitylated) or blue arrow heads. […] Source data are available for this figure.

remaining activity at 1 µM: 109%
remaining activity at 10 µM: 96.5%
remaining activity at 100 µM: 95.6%
SMILES: CC(C)(C)NS(=O)(=O)c1ccc(NC(=O)[C@H](Cc2ccccc2)NC(=O)c2ccc(F)cc2)cc1 [compound 39, CMPD-39]
